Calls of active or inactive are those of the source. No cut-off for these calls is given here.
Experiments:
[1] = Selectivity ratio of IC50 for inhibition of 20S proteasome beta 5c subunit (unknown origin) to IC50 for inhibition of 20S proteasome subunit beta-5i
DOHH-2 = assay: Antiproliferative activity against human DOHH-2 cells assessed as growth inhibition at 0.2 uM measured after 72 hrs by MTT assay; type: functional; conditions: read-out: GI
Pfeiffer = assay: Antiproliferative activity against human Pfeiffer cells assessed as growth inhibition at 0.2 uM measured after 72 hrs by MTT assay; type: functional; conditions: read-out: GI
HCT-116 [2] = assay: Antiproliferative activity against human HCT-116 cells assessed as growth inhibition at 0.2 uM measured after 72 hrs by MTT assay; type: functional; conditions: read-out: GI
HT-29 = assay: Antiproliferative activity against human HT-29 cells assessed as growth inhibition at 0.2 uM measured after 72 hrs by MTT assay; type: functional; conditions: read-out: GI
MCF7 = assay: Antiproliferative activity against human MCF7 cells assessed as growth inhibition at 0.2 uM measured after 72 hrs by MTT assay; type: functional; conditions: read-out: GI
THP-1 [3] = assay: Antiinflammatory activity against LPS-stimulated human THP-1 cells assessed inhibition of TNF-alpha release at 40 uM measured by ELISA; type: functional, cell-based
THP-1 [4] = assay: Antiinflammatory activity against LPS-stimulated human THP-1 cells assessed inhibition of IL-6 release at 40 uM measured by ELISA; type: functional, cell-based
[5] = target: T1, Proteasome subunit beta type-9 (Homo sapiens, UniProt P28065); assay: Inhibition of 20S proteasome subunit beta-1i (unknown origin) using Ac-PAL-AMC as substrate and measured after 30 mins
T1 sequence (P28065 whole entry): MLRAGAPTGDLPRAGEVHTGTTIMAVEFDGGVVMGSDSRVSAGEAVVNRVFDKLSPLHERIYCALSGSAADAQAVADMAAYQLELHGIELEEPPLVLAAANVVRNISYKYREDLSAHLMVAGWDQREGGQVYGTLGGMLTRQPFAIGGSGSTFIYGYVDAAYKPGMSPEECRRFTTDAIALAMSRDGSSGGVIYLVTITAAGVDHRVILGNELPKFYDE

[6] = target: T2, Proteasome subunit beta type-10 (Homo sapiens, UniProt P40306); assay: Inhibition of 20S proteasome subunit beta-2i (unknown origin) using Ac-KQL-AMC as substrate and measured after 30 mins
T2 sequence (P40306 whole entry): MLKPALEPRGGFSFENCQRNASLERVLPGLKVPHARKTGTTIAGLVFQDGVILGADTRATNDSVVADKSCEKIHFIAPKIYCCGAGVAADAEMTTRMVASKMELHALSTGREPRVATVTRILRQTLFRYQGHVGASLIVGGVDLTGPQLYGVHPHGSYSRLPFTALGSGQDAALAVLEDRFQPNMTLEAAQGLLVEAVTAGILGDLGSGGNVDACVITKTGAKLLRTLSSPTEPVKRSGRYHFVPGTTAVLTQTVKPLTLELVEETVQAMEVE

HCT-116 [7] = assay: Antiproliferative activity against human HCT-116 cells assessed as growth inhibition measured after 72 hrs by CCK-8 assay; type: functional, cell-based; conditions: HCT-116, 72 h
[8] = target: T3, Proteasome subunit beta type-8 (Homo sapiens, UniProt P28062); assay: Inhibition of 20S proteasome subunit beta-5i (unknown origin) using Ac-ANW-AMC as substrate and measured after 30 mins
T3 sequence (P28062 whole entry): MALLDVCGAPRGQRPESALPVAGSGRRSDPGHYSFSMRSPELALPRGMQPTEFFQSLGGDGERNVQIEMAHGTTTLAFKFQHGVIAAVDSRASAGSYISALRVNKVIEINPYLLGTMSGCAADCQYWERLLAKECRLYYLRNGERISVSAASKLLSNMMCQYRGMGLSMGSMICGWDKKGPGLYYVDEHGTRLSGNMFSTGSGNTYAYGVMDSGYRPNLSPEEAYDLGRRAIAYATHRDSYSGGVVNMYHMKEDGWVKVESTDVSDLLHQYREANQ

[9] = target: T4, Proteasome Macropain subunit MB1 (Homo sapiens, UniProt P28074); assay: Inhibition of 20S proteasome subunit beta-5c (unknown origin) using Ac-WLA-AMC as substrate and measured after 30 mins
T4 sequence (P28074 whole entry): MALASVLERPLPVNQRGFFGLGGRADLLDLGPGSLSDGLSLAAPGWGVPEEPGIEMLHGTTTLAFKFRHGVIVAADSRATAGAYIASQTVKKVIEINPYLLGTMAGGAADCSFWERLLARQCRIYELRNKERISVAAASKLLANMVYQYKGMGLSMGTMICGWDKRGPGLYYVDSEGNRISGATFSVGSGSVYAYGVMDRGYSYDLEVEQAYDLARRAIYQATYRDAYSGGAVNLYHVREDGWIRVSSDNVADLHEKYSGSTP

Structure (SMILES) | Ratio IC50 [1] | inhibition of growth at 0.2 µM (DOHH-2) [%] | inhibition of growth at 0.2 µM (Pfeiffer) [%] | inhibition of growth at 0.2 µM (HCT-116 [2]) [%] | inhibition of growth at 0.2 µM (HT-29) [%] | inhibition of growth at 0.2 µM (MCF7) [%] | Activity (THP-1 [3]) | Activity (THP-1 [4]) | IC50 [5] [nM] | IC50 [6] [nM] | IC50 (HCT-116 [7]) [nM] | IC50 [8] [nM] | IC50 [9] [nM]
CC(C)(C)NC(=O)CC[C@H](NC(=O)CCNC(=O)CCl)C(=O)N[C@@H](Cc1ccc2ccccc2c1)C(=O)NCc1cccc2ccccc12 | 535 | < 20 | < 20 | 21 | < 20 | 25 | Active | Active | > 40000 | > 40000 |  |  | 
COc1ccc(C[C@H](NC(=O)[C@H](C)NC(=O)CN2CCOCC2)C(=O)NC(Cc2ccccc2)C(=O)[C@@]2(C)CO2)cc1 (stereo partly drawn) |  | 56 | 36 | 75 | 54 | < 20 | Active | Active |  |  | 730 |  | 
Cc1ccc(CNC(=O)[C@H](Cc2ccccc2)NC(=O)[C@H](CCC(=O)NC(C)(C)C)NC(=O)[C@H](CNC(=O)CCl)NS(=O)(=O)c2ccc(C)cc2)cc1 |  | 34 | 26 | 85 | 59 | < 20 |  |  |  |  | 1090 |  | 
CC(C)(C)NC(=O)CC[C@H](NC(=O)CCNC(=O)CCl)C(=O)N[C@@H](Cc1ccccc1)C(=O)NCc1cccc2ccccc12 | 113 | < 20 | < 20 | 21 | < 20 | < 20 | Active | Active | > 40000 | > 40000 |  | 3.82 | 
Cc1ccc(CNC(=O)[C@H](Cc2ccccc2)NC(=O)[C@H](CCC(=O)NC(C)(C)C)NC(=O)[C@H](CNC(=O)CCl)NC(=O)c2cc(C)on2)cc1 |  | < 20 | 30 | 83 | 54 | < 20 |  |  |  |  | 460 |  | 
Cc1ccc(CNC(=O)[C@H](Cc2ccc3ccccc3c2)NC(=O)[C@H](CCC(=O)NC(C)(C)C)NC(=O)CCNC(=O)CCl)cc1 |  | < 20 | 28 | 60 | < 20 | < 20 | Active | Active |  |  | 1700 |  | 
CC(C)(C)NC(=O)CC[C@H](NC(=O)CCNC(=O)/C(C#N)=C/c1ccc(Cl)cc1)C(=O)N[C@@H](Cc1ccc2ccccc2c1)C(=O)NCc1cccc2ccccc12 | 222 | < 20 | 28 | < 20 | < 20 | < 20 | Active | Active |  |  |  |  | 
Cc1ccc(CNC(=O)[C@H](Cc2ccccc2)NC(=O)[C@H](CC(N)=O)NC(=O)[C@H](CNC(=O)CCl)NC(=O)CN2CCOCC2)cc1 | > 4 |  |  |  |  |  | Active | Active |  |  |  | 2760 | > 10000
Cc1ccc(CNC(=O)[C@H](Cc2ccccc2)NC(=O)[C@H](CCC(=O)NC(C)(C)C)NC(=O)[C@H](CNC(=O)CCl)NC(=O)CCCc2ccccc2)cc1 |  | 25 | 23 | 82 | 53 | < 20 |  |  |  |  | 880 |  | 
CC(C)(C)NC(=O)CC[C@H](NC(=O)CCNC(=O)/C(C#N)=C/c1ccc(Cl)cc1)C(=O)N[C@@H](Cc1ccccc1)C(=O)NCc1cccc2ccccc12 | 124 | 34 | 32 | 26 | < 20 | < 20 | Active | Active |  |  |  |  | 
Cc1ccc(CNC(=O)[C@H](Cc2ccccc2)NC(=O)[C@H](CCC(=O)NC(C)(C)C)NC(=O)CCNC(=O)/C(C#N)=C/c2ccco2)cc1 |  | 23 | < 20 | 76 | 48 | < 20 |  |  | > 40000 | > 40000 | 160 | 2.92 | 
Cc1ccc(CNC(=O)[C@H](Cc2ccc([N+](=O)[O-])cc2)NC(=O)[C@H](CCC(=O)NC(C)(C)C)NC(=O)CCNC(=O)CCl)cc1 |  | < 20 | < 20 | 58 | < 20 | < 20 |  |  |  |  | 800 |  | 84.1
CCC(=O)NCCC(=O)N[C@@H](CCC(=O)NC(C)(C)C)C(=O)N[C@@H](Cc1ccccc1)C(=O)NCc1cccc2ccccc12 | 274 | < 20 | < 20 | < 20 | < 20 | < 20 | Active | Active |  |  |  |  | 
COc1ccc(C[C@H](NC(=O)[C@H](CCC(=O)NC(C)(C)C)NC(=O)CCNC(=O)CCl)C(=O)NCc2ccc(C)cc2)cc1 | 36 | < 20 | 28 | 29 | < 20 | < 20 | Active | Active |  |  |  |  | 

From ChEMBL document CHEMBL5154800, “Identification of N, C-capped di- and tripeptides as selective immunoproteasome inhibitors” (Eur J Med Chem, 2022)
